Assay results: patent publication US20100093616A1 (priority 2005, published 2010)

What was measured:
Assay type in all cases: in vivo, Lewis Rats
[1] = tested on: Experimental Autoimmune Encephalytis (EAE); assay: Therapeutical effect in EAE biomodel (Example 1); conditions: therapeutical scheme; for N° of perivascular inflammatory infiltrates (Means ± SD): brain and spinal cord, day 40; for Incidence (%): i.p. 10 days from day 10 after first immunization, EGF/GHRP-6 200-740 μg/kg/day, EGF 200 μg/kg/day, GHRP-6 740 μg/kg/day, 8 rats per group
Procedure: Female Lewis Rats (130 g), were subcutaneously immunized with guinea pig spinal cord homogenate (5 mg) in PBS (50%) and complete Freund adjuvant (50%), during days 0 and 6. […] This therapeutical scheme was followed for 10 days, using intraperitoneal administration. Clinical scores was based on the following grading: 0; no symptom, 1; tail paralysis, 2; paralysis of any of the hind limbs, 3; full paralysis of the hind limbs, 4; complete paralysis of the fore and hind limbs 5; moribund or death. Weight loss and vesical and rectal sphincter incontinency, which are also clinical signs of the disease, are scored by adding 0.5 to the clinical index previously described. Forty days after the first immunization the animals were anesthetized and euthanized, the encephalon and spinal cord were processed for histopathological study (10% de formalin, H & E y Luxol Blue staining). For the histopathological analysis the following parameters were consider: number and size of perivascular inflammatory infiltrates, number of demyelination lesions, number of apoptotic neurons and glial cells and astrocytes reactivity. The microscopic study was blindly conducted.

[2] = tested on: Experimental Autoimmune Encephalytis (EAE); assay: Prophylactic scheme in EAE animal model (Example 2); conditions: for Clinical scores maximum / Clinical scores minimum / Incidence (%): EGF/GHRP-6 200-740, EGF 200, GHRP-6 740 μg/kg/day; for N° of perivascular inflammatory infiltrates (Means ± SD): brain and spinal cord, day 40, EGF/GHRP-6 200-740, EGF 200, GHRP-6 740 μg/kg/day; for Incidence (%): i.p. days -10 to -1 before first immunization, 8 rats per group
Description: (§1) This prophylactic scheme was followed for 10 days (−10 to −1 day before the first immunization), using the intraperitoneal administration route. Clinical scores was based on the following grading: 0; no symptom, 1; tail paralysis, 2; paralysis of any of the hind limbs, 3; full paralysis of the hind limbs, 4; complete paralysis of the fore and hind limbs 5; moribund or death. Weight loss and vesical and rectal sphincter incontinency, which are also clinical signs of the disease, are scored by adding 0.5 to the clinical index previously described. Forty days after the first immunization the animals were anesthetized and euthanized, the encephalon and spinal cord were processed for histopathological study (10% de formalin, H & E y Luxol Blue staining). For the histopathological analysis the following parameters were consider: number and size of perivascular inflammatory infiltrates, number of demyelination lesions, number of apoptotic neurons and glial cells and astrocytes reactivity. The microscopic study was blindly conducted.

[3] = tested on: Experimental Autoimmune Encephalytis (EAE); assay: Dose study of the combination in EAE model, therapeutical scheme (Example 3); conditions: EGF component of the combination
Procedure: Looking for a range of doses for the pharmaceutical combination that would be efficient for the therapeutic effects, it was used in the afore mentioned EAE model Female Lewis Rats (130 g), were subcutaneously immunized with guinea pig spinal cord homogenate (5 mg) in PBS (50%) and complete Freund adjuvant (50%), during days 0 and 6.
as §1, with “therapeutical” for “prophylactic”, “days,” for “days (−10 to −1 day before the first immunization),”, “using” for “using the”, “administration.” for “administration route.”

[4] = EGF/GHRP-6 200-740, EGF 200, GHRP-6 740 μg/kg/day
[5] = i.p. 10 days, EGF/GHRP-6 200-740, EGF 200, GHRP-6 740 μg/kg/day
[6] = i.p. 10 days, EGF/GHRP-6 200-740, EGF 200, GHRP-6 740 μg/kg/day, scale 0-5
[7] = i.p. days -10 to -1, EGF/GHRP-6 200-740, EGF 200, GHRP-6 740 μg/kg/day

Substance | N° of perivascular inflammatory infiltrates (Means ± SD) [1, 4] | Incidence (%) [1] [%] | Days of Debut (Mean ± SD) [1, 5] [days] | Disease duration [1, 5] | Clinical Scores Mean ± SD (mean clinical index) [1, 6] | Clinical scores maximum [1, 6] | Clinical scores minimum [1, 6] | Clinical scores maximum ([2]; scale 0-5) | Clinical scores minimum ([2]; scale 0-5) | N° of perivascular inflammatory infiltrates (Means ± SD) [2] | Days of Debut (Mean ± SD) [2, 7] [days] | Clinical scores Means ± SD (mean clinical index) ([2]; i.p. days -10 to -1, EGF/GHRP-6 200-740, EGF 200, GHRP-6 740 μg/kg/day, scale 0-5) | Incidence (%) [2] [%] | dose range that maintains usefulness of the combination for protection against induction of EAE [3] [µg/kg/day]
His-D-Trp-Ala-Trp-D-Phe-Lys-NH sub 2 [GHRP-6] | 2.25 ± 1.25 | 100 | 13.7 ± 2.3 | 15.5 ± 6.7 | 1.5±1.6 | 4 | 0.5 | 4 | 1 | 2.7 ± 1.95 | 11.7 ± 2.3 | 2.7±1.03 | 100 | 
Epidermal Growth Factor [EGF] | 4.5 ± 1.9 | 100 | 12.5 ± 0.57 | 12.7 ± 4.1 |  |  | 1 | 4 | 1 | 4 ± 1.6 | 11.5 ± 0.57 |  | 100 | 50 to 400
